According to article PMC11409218, “Metal(triphenylphosphine)-atovaquone Complexes: Synthesis, Antimalarial Activity, and Suppression of Heme Detoxification” (Inorganic Chemistry, 2024):
Like-named read-outs stand apart in the source and are kept apart here.

Assays:
[1] = Cytotoxicity in mammalian cells (CellTiter-Glo), J774; format: cell-based; details: mouse, J774 macrophage cells; J774 murine macrophage line; 72 h drug incubation; mean of three experiments; read-out: mammalian cells CC50 (±SEM), J774
Procedure: (§1) Cell lines J774 and HepG2 were incubated with the drug for 72 h, the same time frame as employed to determine antimalarial activity. Cytotoxicity was evaluated in parallel with ATV as a representative parental drug, while doxorubicin was used as a standard cytotoxic drug. These experiments were also used to estimate the in vitro selectivity index (Table 2).
(§2) Doxorubicin chloridrate (Eurofarma, São Paulo, Brazil) was used as a positive control, while untreated cells were employed as negative controls. Bioluminescence readings were performed using a Filtermax F5Multi-Mode instrument (Molecular Devices, Sunnyvale, CA) using the CellTiter-Glo kit (Promega Corporation, Madison, USA). Three independent experiments were performed and CC50 values were calculated.

[2] = Cytotoxicity in mammalian cells (CellTiter-Glo), HepG2; format: cell-based; details: HepG2 hepatocellular carcinoma cells; HepG2 human hepatocellular carcinoma line; 72 h drug incubation; mean of three experiments; read-out: mammalian cells CC50 (±SEM), HepG2
Procedure: as §1, §2

[3] = test system: P. falciparum W2 (CQ-resistant strain); assay: Antiplasmodial activity, asexual blood stages, HRP2 ELISA-based assay, W2 strain; format: cell-based, Plasmodium falciparum; details: read-out: P. falciparum IC50 (±SEM), W2
Procedure: The potency of the metal complexes to inhibit parasite growth was also examined in comparison with ATV.
The two strains were synchronized twice with sorbitol before use,[69] and clonality was verified every 15 days through PCR genotyping of the polymorphic genetic markers msp1 and msp2 and microsatellite loci.[70],[71] Compounds were resuspended in DMSO and then diluted in RPMI-DMSO (99v/1v) to obtain final concentrations ranging from 0.25 to 20000 nM.
After freezing and then thawing, the hemolyzed cultures were homogenized by vortexing the plates. The drug susceptibility assay was performed using the HRP2 ELISA-based assay of the Malaria Ag Celisa kit (ref KM2159, Cellabs PTY LDT, Brookvale, Australia), as described previously.[72]

[4] = test system: P. falciparum 3D7 (CQ-susceptible strain); assay: Antiplasmodial activity, asexual blood stages, HRP2 ELISA-based assay, 3D7 strain; format: cell-based, Plasmodium falciparum; details: read-out: P. falciparum IC50 (±SEM), 3D7
Excerpt: We determined the half-maximal inhibitory concentration (IC50) of the complexes against asexual blood stages of P. falciparum using CQ-susceptible and CQ-resistant strains (Table 2). […]. Two strains were selected for the tests: the CQ-susceptible 3D7 strain (isolated in West Africa; obtained from MR4, VA, USA), and the CQ-resistant W2 strain (isolated in Indochina; obtained from MR4, VA, USA). Both were maintained in culture in RPMI 1640 (Invitrogen, Paisley, UK), supplemented with 10% human serum (Abcys S.A. Paris, France), and buffered with 25 mM HEPES and 25 mM NaHCO3. Parasites were grown in A-positive human blood (Etablissement Français du Sang, Marseille, France) in controlled atmospheric conditions that consisted of 10% O2, 5% CO2, and 85% N2 at 37 °C with 95% humidity. […]
For in vitro isotopic microtests, 25 μL/well of antimalarial drug and 200 μL/well of parasitized red blood cell suspension (final parasitemia 0.5%, final hematocrit 1.5%) were distributed into 96-well plates. The plates were incubated for 72 h at 37 °C in 85% N2, 10% O2, 5% CO2. After freezing and then thawing, the hemolyzed cultures were homogenized by vortexing the plates. The drug susceptibility assay was performed using the HRP2 ELISA-based assay of the Malaria Ag Celisa kit (ref KM2159, Cellabs PTY LDT, Brookvale, Australia), as described previously.[72] […] […]. IC50 are expressed as means of at least 5 to 7 independent experiments.

[5] = test system: β-hematin crystal formation; assay: β-Hematin crystal formation by FTIR spectroscopy; format: biochemical; details: acid-buffered medium pH 5; 1:3 hematin/compound ratio
Procedure: The ability of these compounds to inhibit the formation of β-hematin crystals was investigated by IR spectroscopy (Figure 2f). Of note, β-hematin crystal formation was assayed in an acid-buffered medium, while hemin titration was assayed at neutral pH. […]. For both ATV and complexes 1–3, there may have been overlapping between a decrease in the (C = O) band of heme species and a (C = O) band of quinone. However, there was no danger of overlaps in the (C–O) band of heme species at 1210 cm^–1, since these species are absent from the drugs.
The conversion of hematin into β-hematin crystals was determined by FTIR spectroscopy as described previously.[52] In a microtube, 20 mg hemin and three equivalents of the compounds were dissolved in 3 mL 0.1 M NaOH solution and stirred for 30 min at 60 °C. Then, 0.3 mL 0.1 M HCl and 1.7 mL sodium acetate buffer (10 M, pH 5) were added at the same temperature. […] After incubation for 120 min, the reaction mixture was cooled on ice for 10 min and then centrifuged and washed with water to remove salts. Resulting crystals were dried and IR spectra were obtained using ATR mode.[66]−[68]

[6] = Interaction with ferriprotoporphyrin IX, spectroscopic titration of Soret band at 402 nm; format: binding; details: pH 7.4; 40% aqueous DMSO; 1:1 complexation model; mean and SEM of three experiments
Procedure: The association constants (Log K) of the compounds with hemin were determined at pH 7.4 using a 1:1 complexation model with the equation proposed by Egan et al.[52] for the nonlinear least-squares fitting (Figure 2, Table 2).
Following a procedure described in the literature,[52] the association constant (Log K) of the drugs with ferriprotoporphyrin IX was determined in 40% aqueous DMSO. A stock solution of hemin chloride was prepared by adding 3.5 mg hemin to 10 mL DMSO and adjusted to pH 7.5. A working solution of hemin in 40% DMSO was further prepared by mixing 140 μL hemin stock solution, 5 mL distilled water, 3.86 mL DMSO, and 1 mL 0.2 M Tris (tris(hydroxymethyl)aminomethane) buffer. Aliquots of compounds were added to this working hemin solution. Blank solutions containing only hemin or compounds were prepared to subtract the absorbance of the compounds. […] Binding affinity was determined using the equation A = (A0 + A∞K[C])/(1 + K[C]) for a 1:1 complexation model using nonlinear least-squares fitting, where A0 is the absorbance of Fe(III)PPIX, A∞ is the absorbance of the compound–hemin adduct at saturation, and K is the association constant. Three independent experiments were performed.

J774 cells = assay: Cytotoxicity in mammalian cells (CellTiter-Glo), J774; format: cell-based; details: J774 murine macrophage line; 72 h drug incubation; mean of three experiments; read-out: mammalian cells CC50 (±SEM), J774
Procedure: as §1, §2

[7] = CQ-resistant W2 strain, 72 h drug incubation, mean of five to seven experiments
[8] = CQ-susceptible 3D7 strain, 72 h drug incubation, mean of five to seven experiments

Question: With `COc1cccc2c1C(=O)c1c(O)c3c(c(O)c1C2=O)C[C@@](O)(C(=O)CO)C[C@@H]3O[C@H]1C[C@H](N)[C@H](O)[C@H](C)O1` [DOX, Doxorubicin, reference compound] as the compound, how does the CC50 at 72 h [1] read?
Answer: 0.44 ± 0.31 µM

Question: And the CC50 at 72 h [2]?
Answer: < 0.12 µM

Question: For `CCN(CC)CCCC(C)Nc1ccnc2cc(Cl)ccc12` (stereo not drawn) [CQ, chloroquine], which IC50 ([3]; Plasmodium falciparum, W2, 72 h) is on record?
Answer: 0.526 ± 0.126 µM

Question: What about the IC50 ([4]; Plasmodium falciparum, 3D7, 72 h) of the same compound?
Answer: 0.0238 ± 0.0055 µM

Question: What about the “inhibition of β-hematin crystal formation (IR bands 1663 and 1210 cm^–1)” value [5] of the same compound?
Answer: decreased simultaneously in these two bands

Question: What about the “log K (association constant of drug binding to hemin)” value [6] of the same compound?
Answer: 4.78 ± 0.01

Question: What does the source list for `O=[N+]([O-])[O-].[Cu+].c1ccc(P(c2ccccc2)c2ccccc2)cc1.c1ccc(P(c2ccccc2)c2ccccc2)cc1` [[Cu(PPh3)2NO3]]?
Answer: CC50 (J774 cells): > 80 µM; IC50 [3, 7]: > 20 µM; IC50 [4, 8]: > 20 µM

Question: What does the source list for `[Cl][Au].c1ccc(P(c2ccccc2)c2ccccc2)cc1` [AuClPPh3, [Au(PPh3)Cl]]?
Answer: CC50 (J774 cells): 4.1 ± 0.8 µM; IC50 [3, 7]: 3.29 ± 0.629 µM; IC50 [4, 8]: 1.43 ± 0.309 µM
